Converted amounts (≈) assume the structure as drawn. Read-outs that look alike come from different tables or passages of the source. Square brackets hold non-standard residues; d marks the D form. Peptide text beside a SMILES is read from it. Cha = N[C@@H](CC1CCCCC1)C(=O)O
How the values were obtained:
[1] = system: E. coli infected kenny^drawing 2831 flies; assay: In vivo survival assay, D. melanogaster infection model; design: species or system Drosophila melanogaster; settings: 18.4 nl of 1 mM peptide 1 and 24 h after infection; for fold increased survival of infected flies 96 h after injection: E. coli infected kenny flies, versus PBS
Procedure: FIG. 2 concerns the in vivo survival assay using Drosophila melanogaster infection model. Seven-day-old female kenny^C02831 flies were infected by septic injury with a thin tungsten needle previously dipped in an E. coli suspension diluted in PBS and kept at 29° C. 1 and 24 hours after infection, 18.4 nl of peptides (1 mM) diluted in PBS or PBS alone were injected into the flies body cavity. (A) Survival curves. (B) Survival rate after 96 hours. (C) Lethal time 50% (LT50). Data represent means±standard errors of at least 3 independent experiments, each containing three groups of 20 flies. One-Way ANOVA test: *P<0.05, **P<0.01, ***P<0.001. ns: non-significant (P28: Onc112; P30: Onc112-P7; P120: Onc112-P7Scr).
50 ml of E. coli ATCC23754 were grown at 29° C. in LB media up to exponential phase (OD600=0.6-0.8) and centrifuged at 5.000 g for 5 min. The pellet was then diluted in 1 ml of PBS. Immune-deficient kenny^C02831 (Bou Aoun, R., Hetru, C., Troxler, L., Doucet, D., Ferrandon, D., and Matt, N. (2011). Analysis of thioester-containing proteins during the innate immune response of Drosophila melanogaster. J Innate Immun 3, 52-64) flies were raised at 25° C. with 60% humidity on standard cornmeal-agar medium. Seven-day-old female flies were infected by septic injury with a thin tungsten needle previously dipped in an E. coli suspension diluted in PBS and kept at 29° C. 1 and 24 hours after infection, 18.4 nl of peptides (1 mM) diluted in PBS or PBS alone were injected into the fly body cavity (Nanoject II apparatus; Drummond Scientific). Because log-rank analysis can only compare two survival curves at a time in the same experiment, we decided to compute the median lethal time 50 (LT50) and the survival rate at 96 hours to perform One-way ANOVA statistical analysis.

[2] = target: Human PCNA (Homo sapiens, UniProt P12004); assay: ITC, peptide interaction with human PCNA; assay type: binding; settings: ITC 30° C.
Human PCNA, sequence (P12004 whole entry): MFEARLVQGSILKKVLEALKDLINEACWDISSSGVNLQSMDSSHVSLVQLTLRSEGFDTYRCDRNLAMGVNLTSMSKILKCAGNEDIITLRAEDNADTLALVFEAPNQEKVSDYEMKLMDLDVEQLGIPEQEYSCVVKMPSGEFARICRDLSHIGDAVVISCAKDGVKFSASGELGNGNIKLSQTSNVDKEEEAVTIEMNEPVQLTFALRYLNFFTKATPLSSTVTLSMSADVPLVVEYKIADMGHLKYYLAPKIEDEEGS
Procedure: The inventors have compared the affinities of the prototypical P7 SC-binding peptide for the bacterial SC and for the eukaryotic functional homolog “Proliferating Cell Nuclear Antigen” PCNA. The same analysis was performed with the DPD1 peptide that contains a well-described specific PCNA Interacting Peptide (PIP) sequence ([…]).

[3] = system: E. coli D22 strain; assay: microbe, parasite or virus in culture; assay type: cell-based; settings: for antibacterial activity, in words: E. coli D22, microdilution broth assay
[4] = system: E. coli ATCC 25922 (DSM 1103) strain; assay type: cell-based; settings: ATCC 25922, 36 h
Procedure: E. coli strains were cultivated on either agar or liquid 1× Mueller Hinton broth unless specified. MIC assays were performed in duplicate in 96-well microtiter plates on the basis of the protocol recommended by the Clinical and Laboratory Standards Institute. Briefly, a mix of 5-6 fresh (less than 36 hours) colonies grown on MH agar plates were inoculated in 3 ml of MH broth and incubated for about 16 h at 37° C. under agitation. 30 μl of this saturated culture were inoculated in 3 ml of fresh medium and allowed to grow until OD600 nm of about 0.6-0.8. Dilution to an OD600 nm of 0.002 was made in MH broth. Within a time laps not exceeding 30 min, 50 μl of this cell suspension was added to 50 μl of MH broth (containing or not the peptide/antibiotic diluted in MH broth) in wells of a 96-well round bottom microwell plate (Greiner; final cell density about 2 to 5×10^5 cfu/ml). Plates were incubated at 37° C. for 18-24 h and final turbidity of each well was measured at 620 nm using a Multiskan FC microplate reader (Thermo Scientific). MIC was defined as the minimal antibiotic concentration that result in no increase of turbidity at that time. Each MIC determination was performed in duplicate and at least in two independent experiments. Plating of 75 μl of the content of the wells of interest on LB Agar plates was used to determine the MBC that is defined by a decrease of at least 99.9% of cell viability as compared to the number of viable cells in the inoculum (about 2 to 5×10^4 cfu).
The antimicrobial activities of these peptides have been tested against the E. coli ATCC 25922 (DSM 1103) strain in 1× Mueller-Hinton broth as mentioned above.
The antimicrobial activities of these peptides and controls have been tested against the E. coli ATCC 25922 (DSM 1103) strain in 1× Mueller-Hinton broth.

[5] = system: E. coli; settings: cited from earlier work
[6] = system: E. coli D22 cells; settings: FITC staining after exposure to equal amounts, FIG. 1
Procedure: FIG. 1 concerns the analysis of peptide penetration into E. coli cells. (a) Fluorescence microscopy of E. coli cells exposed to the three different FITC labeled peptides.
In order to analyse the penetration capacity of the peptides in E. coli D22 cells, FITC-labeled peptides were added to 1 ml of bacterial cultures (OD600=0.8) at a final concentration of 8 μg/ml. The cells were allowed to acquire the peptides for 1 h at 37° C., washed 3 times with 0.5 ml PBS, fixed with 1% formaldehyde solution in PBS for 45 min at room temperature, washed 3 times with 0.5 ml PBS and finally resuspended in 50 μl PBS. Cells were visualized using a Leica DM5500 microscope equipped with a 100× objective and images were processed using Fiji software. One-way ANOVA statistical analysis was performed with the R package.

For `CC(=O)N[C@@H](CCC(N)=O)C(=O)N[C@@H](CC1CCCCC1)C(=O)N[C@@H](CC(=O)O)C(=O)N[C@@H](CC(C)C)C(=O)N[C@@H](Cc1ccccc1)C(=O)O` [Peptide P7, Ac-QChaDLF-OH, reference compound] (Ac-Q[Cha]DLF-OH), the “effect on survival of E. coli infected flies, in words” value (shortened to “effect on survival”) [1] was “has no effect on fly survival”, the “interaction with Human PCNA, in words” value [2] was “no interaction could be detected” and the “MIC (μM)” value ([3]; D22 strain) was >357 µM. The “MIC (μg/ml)” value ([3]; D22 strain) was >256 µg/mL and the “antibacterial activity, in words” value [3] was “fails to induce any detectable antibacterial activity”.
In the case of `CC[C@H](C)[C@H](NC(=O)[C@@H](CCCNC(=N)N)NC(=O)[C@H](CCCNC(=N)N)NC(=O)[C@@H]1CCCN1C(=O)[C@@H]1CCCN1C(=O)[C@H](CCCNC(=N)N)NC(=O)[C@@H]1CCCN1C(=O)[C@H](CCCNC(=N)N)NC(=O)[C@@H]1CCCN1C(=O)[C@H](CC(C)C)NC(=O)[C@H](Cc1ccc(O)cc1)NC(=O)[C@@H]1CCCN1C(=O)[C@@H]1CCCN1C(=O)[C@H](CCCCN)NC(=O)[C@H](CC(=O)O)NC(=O)[C@@H](N)C(C)C)C(=O)N[C@@H](Cc1ccc(O)cc1)C(=O)N[C@@H](CC(N)=O)C(=O)N[C@H](CCCNC(=N)N)C(=O)N[C@@H](CC(N)=O)C(=O)NCC(=O)N1CCC[C@H]1C(=O)N[C@@H](CCCNC(=N)N)C(=O)N[C@@H](CCC(N)=O)C(=O)N[C@@H](CC1CCCCC1)C(=O)N[C@@H](CC(=O)O)C(=O)N[C@@H](CC(C)C)C(=O)N[C@@H](Cc1ccccc1)C(=O)O` [Peptide P30] (H-VDKPPYLPRPRPPR[dR]IYN[dR]NGPRQ[Cha]DLF-OH), the “MIC” value [4] is reported as 16 to 32 µM, the “effect on survival” value [1] is reported as “two times higher protective effect than its parental peptide P28” and the “fold increased survival of infected flies 96 h after injection” value [1] is reported as 4.5 fold. The “MIC (μM)” value ([3]; D22 strain) was 0.15 to 0.29 µM, the “MIC (μg/ml)” value ([3]; D22 strain) was 0.5 to 1 µg/mL and the “antibacterial activity, in words” value [3] was “no increase in the activity”.
In the case of `CC[C@H](C)[C@H](NC(=O)[C@@H](CCCNC(=N)N)NC(=O)[C@H](CCCNC(=N)N)NC(=O)[C@@H]1CCCN1C(=O)[C@@H]1CCCN1C(=O)[C@H](CCCNC(=N)N)NC(=O)[C@@H]1CCCN1C(=O)[C@H](CCCNC(=N)N)NC(=O)[C@@H]1CCCN1C(=O)[C@H](CC(C)C)NC(=O)[C@H](Cc1ccc(O)cc1)NC(=O)[C@@H]1CCCN1C(=O)[C@@H]1CCCN1C(=O)[C@H](CCCCN)NC(=O)[C@H](CC(=O)O)NC(=O)[C@@H](N)C(C)C)C(=O)N[C@@H](Cc1ccc(O)cc1)C(=O)N[C@@H](CC(N)=O)C(=O)N[C@H](CCCNC(=N)N)C(N)=O` [Peptide P28, reference compound] (H-VDKPPYLPRPRPPR[dR]IYN[dR]-NH2; N-terminus assumed), the “MIC” value [4] is listed as 2 to 8 µM, the “MIC of previous reports” value [5] is listed as 0.82 µM and the “MIC of previous reports” value ([5]; other E. coli strains and/or culture media) is listed as 2 µg/mL. The “fold increased survival of infected flies 96 h after injection” value [1] was 2.5 fold.
With `CC[C@H](C)[C@H](NC(=O)[C@@H]1CCCN1C(=O)[C@H](CCCNC(=N)N)NC(=O)[C@@H]1CCCN1C(=O)[C@@H]1CCCN1C(=O)[C@@H](NC(=O)[C@@H]1CCCN1C(=O)[C@H](CCCNC(=N)N)NC(=O)[C@@H]1CCCN1C(=O)[C@H](CC(C)C)NC(=O)[C@H](Cc1ccc(O)cc1)NC(=O)[C@H](CO)NC(=O)CNC(=O)[C@H](CCCCN)NC(=O)[C@H](CC(=O)O)NC(=O)[C@@H](NC(=O)[C@H](CCCCN)NC(=O)c1ccc2c(c1)C(=O)OC21c2ccc(O)cc2Oc2cc(O)ccc21)C(C)C)[C@@H](C)O)C(=O)N[C@@H](Cc1ccc(O)cc1)C(=O)N[C@@H](CC(N)=O)C(=O)N[C@@H](CCCNC(=N)N)C(=O)N[C@@H](CC(N)=O)C(=O)NCC(=O)N1CCC[C@H]1C(=O)N[C@@H](CCCNC(=N)N)C(=O)N[C@@H](CCC(N)=O)C(=O)N[C@@H](CC1CCCCC1)C(=O)N[C@@H](CC(=O)O)C(=O)N[C@@H](CC(C)C)C(=O)N[C@@H](Cc1ccccc1)C(=O)O` [Peptide P150] the “entry into E. coli cells, times less efficiently than P122” value [6] was “about 3 times”, the “factor by which MIC is lower than that of P122” value [3] was 4 to 16 and the “MBC” value ([3]; D22 strain) was 128 µg/mL (≈ 33.7 µM). The “MIC (μM)” value ([3]; D22 strain) was 16.9 to 33.8 µM and the “MIC (μg/ml)” value ([3]; D22 strain) was 64 to 128 µg/mL.
With `CC[C@H](C)[C@H](NC(=O)[C@@H](CCCNC(=N)N)NC(=O)[C@H](CCCNC(=N)N)NC(=O)[C@@H]1CCCN1C(=O)[C@@H]1CCCN1C(=O)[C@H](CCCNC(=N)N)NC(=O)[C@@H]1CCCN1C(=O)[C@H](CCCNC(=N)N)NC(=O)[C@@H]1CCCN1C(=O)[C@H](CC(C)C)NC(=O)[C@H](Cc1ccc(O)cc1)NC(=O)[C@@H]1CCCN1C(=O)[C@@H]1CCCN1C(=O)[C@H](CCCCN)NC(=O)[C@H](CC(=O)O)NC(=O)[C@@H](N)C(C)C)C(=O)N[C@@H](Cc1ccc(O)cc1)C(=O)N[C@@H](CC(N)=O)C(=O)N[C@H](CCCNC(=N)N)C(=O)N[C@@H](CC(N)=O)C(=O)NCC(=O)N1CCC[C@H]1C(=O)N[C@@H](CCCNC(=N)N)C(=O)N[C@@H](CC1CCCCC1)C(=O)N[C@@H](Cc1ccccc1)C(=O)N[C@@H](CCC(N)=O)C(=O)N[C@@H](CC(C)C)C(=O)N[C@@H](CC(=O)O)C(=O)O` [Peptide P120] (H-VDKPPYLPRPRPPR[dR]IYN[dR]NGPR[Cha]FQLD-OH) the “effect on survival” value [1] was “does not statistically differ from that measured with P28”, the “MIC (μM)” value ([3]; D22 strain) was 0.29 to 0.58 µM and the “MIC (μg/ml)” value ([3]; D22 strain) was 1 to 2 µg/mL.

From patent US12098217B2, “Fusion peptides as antimicrobial agents” (CENTRE NATIONAL DE LA RECHERCHE SCIENTIFIQUE, priority 2019, dated 2024)
